Data on 28 compounds can be found in patent publication US8822468B2 (Novartis AG, priority 2008, dated 2014).

pIC50: −log10 of the molar value.

T1 sequence (P08581 969-1390): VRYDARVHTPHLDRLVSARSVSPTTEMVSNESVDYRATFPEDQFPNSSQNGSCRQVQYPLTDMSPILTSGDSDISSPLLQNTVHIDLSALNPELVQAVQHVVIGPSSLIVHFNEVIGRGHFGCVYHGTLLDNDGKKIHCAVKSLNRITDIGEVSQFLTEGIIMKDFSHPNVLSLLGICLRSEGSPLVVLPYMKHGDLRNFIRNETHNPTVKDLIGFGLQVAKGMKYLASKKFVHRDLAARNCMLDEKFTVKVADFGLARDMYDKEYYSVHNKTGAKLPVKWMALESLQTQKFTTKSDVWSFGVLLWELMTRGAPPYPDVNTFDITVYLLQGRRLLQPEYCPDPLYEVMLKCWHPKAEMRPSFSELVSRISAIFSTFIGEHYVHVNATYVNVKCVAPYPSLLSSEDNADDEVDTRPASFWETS

This assay concerns the target T1, cMET receptor tyrosine kinase (GST-cMET (969-1390)) (Homo sapiens, UniProt P08581).
T1 construct: made in house
The assay is described as follows: EPK cMET profiling assay (LanthaScreen TR-FRET antibody based kinase phosphorylation assay). It is filed as biochemical. The following applies: purified recombinant GST-cMET (969-1390), 2 μM ATP, 50 nM Fluorescein-PolyEAY, 60 minutes at room temperature; read-out: c-Met IC50. The method in brief:
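Compounds tested at eight final concentrations from 10 down to 0.003 µM against affinity-purified GST-cMET (969-1390, 0.3 nM) with 2 µM ATP and 50 nM fluorescein-PolyEAY in Tris buffer with MgCl2 and MnCl2, 1 h at room temperature. After EDTA stop, phosphoproduct detected by LanthaScreen TR-FRET with Tb-PY20 antibody, end-point measurement.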
`CN(C)C(=O)c1cccc(-c2ccc3ncc(Cc4ccc5ncccc5c4)n3n2)c1` [Example 59, N,N-Dimethyl-3-(3-quinolin-6-6-ylmethyl-imidazo[1,2-b]pyridazin-6-yl)-benzamide]: the negative-log IC50 (pIC50) is 6.25. As for `CNC1CCN(c2ccc3ncc(Cc4ccc5ncccc5c4)n3n2)C1` (racemic) [Example 119, (rac)-Methyl-[1-(3-quinolin-6-ylmethyl-imidazo[1,2-b]pyridazin-6-yl)-pyrrolidin-3-yl]-amine], the pIC50 is 7.38. Next, `CN(C)[C@@H]1CCN(c2ccc3ncc(Cc4ccc5nccn5c4)n3n2)C1` [Example 76, [(R)-1-(3-Imidazo[1,2-a]pyridin-6-ylmethyl-imidazo[1,2-b]pyridazin-6-yl)-pyrrolidin-3-yl]-dimethyl-amine]: 6.52; `c1cnc2ccc(Cc3cnc4ccc(N5CCCC5)nn34)cc2c1` [Example 85, 6-(6-Pyrrolidin-1-yl-imidazo[1,2-b]pyridazin-3-ylmethyl)-quinoline]: 7.02; `Cn1cc(-c2ccc3ncc([C@@H](O)c4ccc5ncccc5c4)n3n2)cn1` [Example 152, (S)-[6-(1-Methyl-1H-pyrazol-4-yl)-imidazo[1,2-b]pyridazin-3-yl]-quinolin-6-yl-methanol]: 6.05. Next, `O=C(NCCN1CCCC1)c1ccc(-c2ccc3ncc(Cc4ccc5ncccc5c4)n3n2)cc1Cl` [Example 144, 2-Chloro-N-(2-pyrrolidin-1-yl-ethyl)-4-(3-quinolin-6-ylmethyl-imidazo[1,2-b]pyridazin-6-yl)benzamide]: 8.49; `Clc1cccc(Nc2ccc3ncc(Cc4ccc5ncccc5c4)n3n2)c1` [Example 121, (3-Chloro-phenyl)-(3-quinolin-6-ylmethyl-imidazo[1,2-b]pyridazin-6-yl)-amine]: 7.70; `COCCn1cc(-c2ccc3ncc(Cc4cc5cccnc5cc4F)n3n2)cn1` [Example 234, 7-Fluoro-6-{6-[1-(2-methoxy-ethyl)-1H-pyrazol-4-yl]-imidazo[1,2-b]pyridazin-3-ylmethyl}-quinoline]: 6.96. On to `Cn1cc(-c2ccc3ncc([C@H](O)c4ccc5ncccc5c4)n3n2)cn1` [Example 151, (R)-[6-(1-Methyl-1H-pyrazol-4-yl)-imidazo[1,2-b]pyridazin-3-yl]-quinolin-6-yl-methanol], for which the pIC50 is 7.19. `Cc1cccc(-c2ccc3ncc(C(C)c4ccc5nccn5c4)n3n2)c1` (racemic) [Example 308, (rac)-3-(1-Imidazo[1,2-a]pyridin-6-yl-ethyl)-6-m-tolyl-imidazo[1,2-b]pyridazine]: the pIC50 is 7.09. In the case of `CCOC(=O)c1cccc(-c2ccc3ncc(Cc4ccc5ncccc5c4)n3n2)c1` [Example 60, 3-(3-Quinolin-6-ylmethyl-imidazo[1,2-b]pyridazin-6-yl)-benzoic acid ethyl ester] it was 6.47; in that of `Cn1cc(-c2ccc3ncc(Cc4ccc5ncc(C=O)n5c4)n3n2)cn1` [Example 297, 6-[6-(1-Methyl-1H-pyrazol-4-yl)-imidazo[1,2-b]pyridazin-3-ylmethyl]-imidazo[1,2-a]pyridine-3-carbaldehyde], 6.89; in that of `C[C@@H](c1cc2cnn(C)c2cc1F)c1cnc2ccc(-c3cnn(C)c3)nn12` [Example 194, 3-[(S)-1-(6-Fluoro-1-methyl-1H-indazol-5-yl)-ethyl]-6-(1-methyl-1H-pyrazol-4-yl)-imidazo[1,2-b]pyridazine], 7.74. For `Cn1cc(-c2ccc3ncc(Cc4ccc5c(cnn5C)c4)n3n2)cn1` [Example 276, 3-(1-Methyl-1H-indazol-5-ylmethyl)-6-(1-methyl-1H-pyrazol-4-yl)-imidazo[1,2-b]pyridazine], the pIC50 was 7.09. With `C[C@@H](c1ccc2ncccc2c1)c1cnc2ccc(-c3cn[nH]c3)nn12` [Example 240, 6-{(S)-1-[6-(1H-Pyrazol-4-yl)-imidazo[1,2-b]pyridazin-3-yl]-ethyl}-quinoline], the negative logarithm of the IC50 (pIC50) is 8.08.

With `OCCCc1ccc(-c2ccc3ncc(Cc4ccc5ncccc5c4)n3n2)cc1` [Example 64, 3-[4-(3-Quinolin-6-ylmethyl-imidazo[1,2-b]pyridazin-6-yl)-phenyl]-propan-1-ol], the negative-log IC50 (pIC50) is 7.10.

`c1cnc2ccc(Cc3cnc4ccc(NC5CCCC5)nn34)cc2c1` [Example 81, Cyclopentyl-(3-quinolin-6-ylmethyl-imidazo[1,2-b]pyridazin-6-yl)-amine]: the pIC50 is 7.12. With `c1cnc2ccc(Cc3cnc4ccc(-c5ccc6c(c5)CCO6)nn34)cc2c1` [Example 63, 6-[6-(2,3-Dihydro-benzofuran-5-yl)-imidazo[1,2-b]pyridazin-3-ylmethyl]-quinoline], the pIC50 was 6.72. Next, `Fc1cc2ncccc2cc1Cc1cnc2ccc(-c3cnn(C4CCN(CC(F)(F)F)CC4)c3)nn12` [Example 149, 7-Fluoro-6-(6-{1-[1-(2,2,2-trifluoro-ethyl)-piperidin-4-yl]-1H-pyrazol-4-yl}-imidazo[1,2-b]pyridazin-3-ylmethyl)-quinoline]: 7.51; `CN(C)CCNC(=O)c1cccc(-c2ccc3ncc(Cc4ccc5ncccc5c4)n3n2)c1` [Example 66, N-(2-Dimethylamino-ethyl)-3-(3-quinolin-6-ylmethyl-imidazo[1,2-b]pyridazin-6-yl)-benzamide]: 7.22; `COc1ncc(-c2ccc3ncc(Cc4ccc5ncccc5c4)n3n2)cn1` [Example 56, 6-[6-(2-Methoxy-pyrimidin-5-yl)-imidazo[1,2-b]pyridazin-3-ylmethyl]-quinoline]: 6.60. In the case of `CC(=O)Nc1cccc(-c2ccc3ncc(Cc4ccc5ncccc5c4)n3n2)c1` [Example 28, N-[3-(3-Quinolin-6-ylmethyl-imidazo[1,2-b]pyridazin-6-yl)-phenyl]-acetamide] it was 6.62; in that of `Cn1cc(-c2ccc3ncc(Cc4ccc5nc(F)cn5c4)n3n2)cn1` [Example 288, 3-(2-Fluoro-imidazo[1,2-a]pyridin-6-ylmethyl)-6-(1-methyl-1H-pyrazol-4-yl)-imidazo[1,2-b]pyridazine], 6.07; in that of `Clc1c(Cc2cnc3ccc(-c4cnn(C5CCNCC5)c4)nn23)ccc2ncccc12` [Example 227, 5-Chloro-6-[6-(1-piperidin-4-yl-1H-pyrazol-4-yl)-imidazo[1,2-b]pyridazin-3-ylmethyl]-quinoline], 7.11.

In the case of `CC(Nc1ccc2ncc(Cc3ccc4ncccc4c3)n2n1)c1ccccc1` (stereo not shown) [Example 103, (1-Phenyl-ethyl)-(3-quinolin-6-ylmethyl-imidazo[1,2-b]pyridazin-6-yl)-amine], the pIC50 is 6.26. Consider `C[C@@H](c1ccc2nccn2c1)c1cnc2ccc(-c3cnn(C)c3)nn12` [Example 295, 3-((S)-1-Imidazo[1,2-a]pyridin-6-yl-ethyl)-6-(1-methyl-1H-pyrazol-4-yl)-imidazo[1,2-b]pyridazine], for which the pIC50 is 7.72.

Consider `COc1ccc(-c2ccc3ncc(Cc4ccc5ncccc5c4)n3n2)cc1` [Example 35, 6-[6-(4-Methoxy-phenyl)-imidazo[1,2-b]pyridazin-3-ylmethyl]-quinoline], for which the pIC50 was 7.10. Next, `CC(C)CNc1ccc2ncc(Cc3ccc4ncccc4c3)n2n1` [Example 79, Isobutyl-(3-quinolin-6-ylmethyl-imidazo[1,2-b]pyridazin-6-yl)-amine]: 7.36.
